Data as given in patent US9517993B2, “Antagonists of the toll-like receptor 1/2 complex” (THE REGENTS OF THE UNIVERSITY OF COLORADO, a body corporate, priority 2012, dated 2016).
Entries after “also recorded” stand apart in the source; their conditions may differ.

What was measured:
RAW 264.7 cells = assay: MTT cytotoxicity assay; assay type: cell-based, mouse; conditions: for cytotoxicity: at the active dose, RAW 264.7 cells, MTT
Method: MTT Cytotoxicity Assay. In a 96-well plate 10,000 cells in 200 μL media (RPMI 1640 medium, supplemented with 10% FBS, penicillin (100 U/mL) and streptomycin ([…])) per well. Eight wells were left empty for blank controls. The plates were incubated (37° C., 5% CO2) overnight to allow the cells to attach to the wells. Add 20 ul (5 mg/mL) MTT solution to each well. Place on a shaking table, 150 rpm for 5 minutes, to thoroughly mix the MTT into the media. Incubate (37° C., 5% CO2) for 4 hours to allow the MTT to be metabolized. Dump off the media. Dry plate on paper towels to remove residue. Resuspend formazan (MTT metabolic product) in 200 ul DMSO. Place on a shaking table, 150 rpm for 5 minutes, to thoroughly mix the formazan into the solvent. When a clear difference could be seen by naked eye, results were read by spectrophotometer at 560 nm. Optical density should be directly correlated with cell quantity. Cytotoxicity (%) was determined using the following formula: Cytotoxicity (%) (1−[Compounds (OD560)−Background(OD560)]/[Control (OD560)−Background (OD560)])×100.

[1] = test system: TNF-α and IL-1β production; assay: Cytokine-specific ELISA in Pam3CSK4-activated RAW 264.7 cells; assay type: cell-based, mouse
Method: RAW 264.7 cells were planted in 6-well plates at 1,000,000 cells per well with 3 mL of medium (RPMI 1640 medium, supplemented with 10% FBS, penicillin (100 U/mL) and streptomycin ([…])) and grown for 24 h at 37° C. in a 5% CO2 humidified incubator. After 24 h, non-adherent cells and media were removed and replaced with fresh RPMI 1640 medium (3 mL/well). Two wells of adherent macrophages were treated with Pam3CSK4 (Invivogen, 300 ng/mL) as the positive control, two wells was treated with 8 μM compound 17, and the other two wells ware treated with 8 μM compound DMSO. Another 6 well plate were treated with Pam3CSK4 (Invivogen, 300 ng/mL) and different concentration of 17. Plates were then incubated for an additional 24 h. […] Approximately 400 μL of supernatant were collected into new tubes, frozen at −80° C. until ready for cytokine measurement. The production of the cytokine interleukin-1β (IL-1β) and TNF-α was quantified with enzyme-linked immunosorbent assays (ELISA) using cytokine-specific capture antibodies, biotinylated monoclonal detection antibodies, and recombinant human cytokine standards according to commercially available ELISA kits from R&D Systems. The cytokine level in each sample was determined in duplicate.

[2] = test system: isolated microglial cells; assay: IL-1β inhibition in isolated microglial cells incubated with Pam3CSK4; assay type: cell-based; conditions: Pam3CSK4 and compound for 2 hours, N=4, listed as CU-CPT22
Method: In vitro testing was conducted using primary cells (isolated microglial cells) incubated with Pam3CSK4 and CU-CPT22 for 2 hours.

pro-inflammatory mRNA = assay: In vivo ICM co-administration with Pam3CSK4, hippocampal mRNA by real time RT-PCR; conditions: 5 ng or 50 ng ICM with Pam3CSK4 40 ng; hippocampus 2 hours after injection; listed as CU-CPT22
Method: In vivo testing was conducted by the administration of Pam3CSK4 and CU-CPTP22. CU-CPT22 (5 ng or 50 ng), suspended in 5 μl sterile saline or vehicle, was co-administered with the TLR2 agonist Pam3CSK4 (40 ng/4 μl) to the animal via the cisterna magna (ICM) with a 1 μl air bubble separating the two reagents. Two hours after injection, the animal's hippocampus was collected for pro-inflammatory mRNA analysis using real time RT-PCR procedures. […] (N=8 for each group).

TLR1/2 = TLR1/2 (Homo sapiens, UniProt O60603+Q15399); assay: Fluorescence anisotropy competition assay with rhodamine-labeled Pam3CSK4; assay type: binding; set-up: His; TLR2 made in house; host or cells: baculovirus; Sf-9 for virus, High Five insect cells for expression (TLR2)
Chain of TLR1/2 (Q15399 25-580 limits assumed): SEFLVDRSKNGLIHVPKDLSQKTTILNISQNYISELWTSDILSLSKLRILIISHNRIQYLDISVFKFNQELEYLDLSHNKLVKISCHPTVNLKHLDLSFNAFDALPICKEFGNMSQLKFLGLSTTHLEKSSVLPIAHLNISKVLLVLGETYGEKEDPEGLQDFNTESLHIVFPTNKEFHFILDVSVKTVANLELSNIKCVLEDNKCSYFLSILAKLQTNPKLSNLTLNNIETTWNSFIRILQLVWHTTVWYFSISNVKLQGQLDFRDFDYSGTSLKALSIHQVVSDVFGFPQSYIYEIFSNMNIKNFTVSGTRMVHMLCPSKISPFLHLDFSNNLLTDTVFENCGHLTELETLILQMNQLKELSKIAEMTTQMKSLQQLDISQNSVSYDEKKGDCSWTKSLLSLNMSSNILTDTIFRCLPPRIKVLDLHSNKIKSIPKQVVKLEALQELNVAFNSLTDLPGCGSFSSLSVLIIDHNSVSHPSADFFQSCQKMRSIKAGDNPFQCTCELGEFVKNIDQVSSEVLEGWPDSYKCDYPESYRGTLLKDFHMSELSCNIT
Chain of TLR1/2 (O60603 21-588 limits assumed): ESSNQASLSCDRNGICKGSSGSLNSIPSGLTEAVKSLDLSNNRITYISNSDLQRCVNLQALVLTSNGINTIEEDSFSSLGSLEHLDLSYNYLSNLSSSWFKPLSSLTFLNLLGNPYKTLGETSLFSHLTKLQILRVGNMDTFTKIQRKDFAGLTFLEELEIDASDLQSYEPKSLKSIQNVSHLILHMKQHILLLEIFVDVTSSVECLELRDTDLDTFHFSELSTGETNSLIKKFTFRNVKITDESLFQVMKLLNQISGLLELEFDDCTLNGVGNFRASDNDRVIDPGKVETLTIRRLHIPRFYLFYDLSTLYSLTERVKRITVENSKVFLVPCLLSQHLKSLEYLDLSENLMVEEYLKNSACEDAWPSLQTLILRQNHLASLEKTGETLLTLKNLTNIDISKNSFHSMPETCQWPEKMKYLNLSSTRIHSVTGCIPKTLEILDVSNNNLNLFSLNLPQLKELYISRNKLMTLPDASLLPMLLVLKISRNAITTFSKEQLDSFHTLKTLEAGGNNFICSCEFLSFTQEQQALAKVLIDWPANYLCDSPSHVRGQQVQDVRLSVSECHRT
From the text: The TLR2 protein was expressed in the baculovirus insect cell expression system using the methods described by Kuroki et al. See Iwaki et al., The extracellular Toll-like receptor 2 domain directly binds peptidoglycan derived from Staphylococcus aureus, J. Biol Chem (2002), 277:24315-20, which is herein incorporated by reference in its entirety. The activity of the TLR2 protein was validated by the fluorescence anisotropy assay. […] Good fitting (R2>0.98) inferred that compound 17 and Pam3CSK4 compete for the same binding site on the TLR1/2 dimeric surface.
In 500 μL Tris buffer (pH=7.2) add 10 μL, (1 ng/mL) rhodamine-labeled Pam3CSK4, test the fluorescence anisotropy at excitation of 549 nm and emission of 566 nm (Horiba Fluorolog 3). And 5 μL (20 μM) TLR1 (R &D) and 5 μL, (20 μM) TLR2 was added into the above buffer, then retest the anisotropy. Following, compound 17 or compound 6 was added in the buffer from the concentration of 0 to 6 μM, and the fluorescence anisotropy was tested in the corresponding concentration.
Fluorescence polarization experiments were performed at 25° C. using a Horiba Fluorolog-3 fluorometer. For direct binding measurements, serial dilutions of TLR1 (R&D, MN) and TLR2 were made in Tris buffer (pH=7.2), and an aliquot (10 μL) of 1 ng/mL rhodamine labeled Pam3CSK4, was added to a total volume of 500 μL. The competition binding solution was incubated for 30 minutes at 25° C. Serial dilutions of compound 17 or compound 6 were incubated with 20 μM TLR1, 20 μM TLR2 and rhodamine-labeled Pam3CSK4 for 30 min at room temperature.
Regression analysis was carried out using Origin 7.5 (OriginLab) ligand binding macro module. […] Equation (1): y=min+(max−min)/(1+10^x-logIC50)(total binding, x=log concentration of and rhodamine-labeled Pam3CSK4, min=nonspecific binding, max=maximum binding in absence of ligand). Equation (2): Ki=IC50/(1+[L]/Kd) ([L]=concentration of rhodamine-labeled Pam3CSK4).

SMILES: CCCCCCOC(=O)c1cc(O)c(=O)c2c(O)c(O)c(OC)cc2c1 [compound 17, Hexyl 3,4,6-trihydroxy-2-methoxy-5-oxo-5H-benzo[7]annulene-8-carboxylate]
- cytotoxicity (RAW 264.7 cells): no significant cytotoxicity
- cytotoxicity (RAW 264.7 cells; listed as CU-CPT22): low toxicity
- toxicity by MTT assay (RAW 264.7 cells; under 8 μM): no significant toxicity issues
- TNF-α inhibition (ELISA) ([1]; RAW 264.7, 300 ng/mL Pam3CSK4): TNF-α inhibition
- IL-1β production (ELISA) ([1]; RAW 264.7, activated by 300 ng/mL Pam3CSK4): inhibited
- inhibition of IL-1β [2]: Dose-dependent inhibition
- IL-6 / M-6 mRNA expression (FIG. 10c) (pro-inflammatory mRNA): strongly inhibits; also recorded: strong inhibition
- TNF-α mRNA expression (FIG. 10b) (pro-inflammatory mRNA): strongly inhibits; also recorded: strong inhibition
- mRNA expression (FIG. 10a) (pro-inflammatory mRNA): strongly inhibits; also recorded: strong inhibition
- anisotropy of rhodamine-labeled Pam3CSK4 with TLR1/2 (TLR1/2; compound concentration increased to 6 μM): decreased the anisotropy to background levels
- competition with Pam3CSK4 for TLR1/2 (in words) (TLR1/2; fluorescence anisotropy): competitive binding
- Ki (TLR1/2; rhodamine-labeled Pam3CSK4, one-site competition model, read-out: inhibition constant (Ki), competition with Pam3CSK4 for binding to TLR1/2): 410 nM
